Results reported in paper PMC9298352, “Design, Synthesis and Structural Analysis of Glucocerebrosidase Imaging Agents” (Chemistry (Weinheim an Der Bergstrasse, Germany), 2021).

Molecular target: T1, rhGBA (Homo sapiens, UniProt P04062)
T1 construct: made in house; host or cells: insect-baculovirus expression vector system (BEVS)
T1 sequence (P04062 40-536): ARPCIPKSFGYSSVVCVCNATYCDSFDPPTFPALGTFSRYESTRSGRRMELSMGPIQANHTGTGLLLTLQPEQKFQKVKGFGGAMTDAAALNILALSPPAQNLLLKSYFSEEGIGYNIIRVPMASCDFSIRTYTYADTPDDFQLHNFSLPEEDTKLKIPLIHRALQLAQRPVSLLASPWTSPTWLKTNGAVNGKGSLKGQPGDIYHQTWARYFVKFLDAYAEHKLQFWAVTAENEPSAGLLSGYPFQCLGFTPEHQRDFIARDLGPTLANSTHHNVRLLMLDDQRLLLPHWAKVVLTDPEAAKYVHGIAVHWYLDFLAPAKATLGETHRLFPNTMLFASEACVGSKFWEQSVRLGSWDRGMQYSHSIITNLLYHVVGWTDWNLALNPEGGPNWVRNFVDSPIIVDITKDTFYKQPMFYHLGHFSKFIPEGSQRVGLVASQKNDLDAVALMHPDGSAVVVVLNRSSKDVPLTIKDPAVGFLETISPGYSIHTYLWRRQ
Assay: pH dependent activity-based labelling of rhGBA by ABP 6 and ABP 9
Type: biochemical
Conditions: rhGBA 200 nM, ABP 150 nM, pH 4.5, 5.2 or 7.4, 37 °C, 30 mins
Description: Cy5 tetrazine 20 (2.83 mg, 4.3 µmol) was added to a solution of norbornene 19 (0.94 mg, 2.38 µmol) in MeOH (4 mL). After stirring overnight at rt, the reaction mixture was concentrated in vacuo and purified by HPLC under neutral conditions (A: 50 mM NH4HCO3 in H2O; B: MeCN; 49% → 52%, A in B) yielding ABP 7 (2.12 mg, 2.07 µmol, 87%) as a mixture of regioisomers.
Biochemical Methods: General Experimental Details
Recombinant human GBA (rhGBA, imiglucerase, Cerezyme®) and GAA (rhGAA, alglucosidase alfa, Myozyme) were obtained from Sanofi Genzyme (Cambridge, MA, USA). HEK293T (CRL-3216) cell lines were purchased from ATCC (Manassas, VA, USA). […] All the tissue lysates were prepared in potassium phosphate lysis buffer (25 mM in pH 6.5, supplemented with 0.1% (v/v) Triton X-100 and protease inhibitor 1x cocktail (Roche)) via homogenization with silent crusher S equipped with Typ 7 F/S head (30 rpm x 1000, 3 × 7 sec) on ice and lysate concentration was determined with Bicinchoninic acid (BCA) Protein Assay Kit (PierceTM)[7]. […]
ABP 9 were diluted with DMSO into various concentrations (200x of the final concentration), and 5 µL of ABP at different concentrations were added into 1 mL fresh medium containing cells and incubated at 37°C for 24 h. […] The protein concentrations were determined using BCA kit. […]

CCCCCCCCN1[C@@H]2[C@H](Cn3cc(CNC(=O)CCCCC[N+]4=C(/C=C/C=C/C=C5/N(C)c6ccccc6C5(C)C)C(C)(C)c5ccccc54)nn3)[C@@H](O)[C@H](O)[C@@H](O)[C@@H]21 (stereo partly shown) [ABP 6]
pH dependence of rhGBA labelling: greater labelling at acidin pH (4.5 and 5.2)
